Test system: Plasmodium berghei
Assay: Luciferase/luciferin-expressing antifolate-resistant parasites were used to infect a culture of HepG2 cells that were pre-incubated with compounds. Infected hepatocytes emit light due to the luciferase reaction. Assay results are presented as the percent inhibition of light emission compared to control. […]
Assay type: functional
Settings: sporozoite; for IC90: read-out: LUCIFERASE INFECTION ASSAY - IC90
[1] = read-out: LUCIFERASE INFECTION ASSAY - IC50

| SMILES | IC90 | IC50 [1] | also measured |
| --- | --- | --- | --- |
| COc1ccc(-c2ccc3nnc(-c4ccccc4)n3c2)cc1 | 5.12 µM |  | IC50 (HEPG2TOX_HILL_SLOPE 1.32, HEPG2TOX_R_SQUARED 0.91, PBLUC_HILL_SLOPE 2.27, PBLUC_R_SQUARED 0.548, read-out: LUCIFERASE INFECTION ASSAY - IC50): 1.94 µM |
| CCOC(=O)/C(=N\Nc1sc(C(=O)OCC)c(C)c1C(=O)OCC)C(=O)c1ccccc1 | 9.2 µM | 7.51 µM |  |
| O=C(CC1(O)C(=O)Nc2ccccc21)c1ccc(OCC(=O)N2CCOCC2)cc1 (stereo unspecified) | > 10 µM | > 10 µM |  |
| CC(C)NC(=O)/C(C#N)=C/c1cccc(Cl)c1Cl | > 10 µM |  | IC50 (HEPG2TOX_HILL_SLOPE 9.7, HEPG2TOX_R_SQUARED 0.0223, read-out: LUCIFERASE INFECTION ASSAY - IC50): > 10 µM |
| Cc1onc(-c2ccccc2)c1-c1ccnc(-c2ccc(Cl)cc2)n1 | 4.54 µM |  | IC50 (HEPG2TOX_HILL_SLOPE 2.45, HEPG2TOX_R_SQUARED 0.972, PBLUC_HILL_SLOPE 2.42, PBLUC_R_SQUARED 0.716, read-out: LUCIFERASE INFECTION ASSAY - IC50): 1.83 µM |
| O=C(Nc1cccc(-c2nc3ccccc3[nH]2)c1)c1cccc(S(=O)(=O)N2CCCC2)c1 | > 10 µM | > 10 µM |  |
| O=C(Cc1ccsc1)Nc1nc(-c2ccccn2)cs1 | 8.87 µM |  | IC50 (PBLUC_HILL_SLOPE 6.07, PBLUC_R_SQUARED 0.668, read-out: LUCIFERASE INFECTION ASSAY - IC50): 6.18 µM |
| CC(c1cccc(NC(=O)c2ccccc2)c1)N(C)c1ccc(C#N)cn1 (stereo unspecified) | > 10 µM |  | IC50 (PBLUC_HILL_SLOPE 1.47, PBLUC_R_SQUARED 0.583, read-out: LUCIFERASE INFECTION ASSAY - IC50): 3.04 µM |
| O=C(COC(=O)c1ccc(-n2ncc(Cl)c(Cl)c2=O)cc1)Nc1ccc(F)cc1 | > 10 µM | > 10 µM |  |
| Cc1nn(CC(=O)N2c3ccccc3NC(=O)CC2C)c(=O)c(C#N)c1C (stereo unspecified) | > 2 µM | > 2 µM |  |
| Cc1ccnc2nc(C(=O)Nc3cc(C(F)(F)F)ccc3N3CCCCCC3)nn12 | 0.413 µM |  | IC50 (PBLUC_HILL_SLOPE 19, PBLUC_R_SQUARED 0.744, read-out: LUCIFERASE INFECTION ASSAY - IC50): 0.368 µM |
| Fc1ccc(CNCC2(c3ccnc(-c4ccc(Cl)cc4)c3)CC2)cc1 | > 10 µM |  | IC50 (PBLUC_HILL_SLOPE 1.81, PBLUC_R_SQUARED 0.142, read-out: LUCIFERASE INFECTION ASSAY - IC50): > 10 µM |
| CCCCNCCCCOc1ccc(C)cc1C(C)(C)C | > 10 µM |  | IC50 (PBLUC_HILL_SLOPE 18.2, PBLUC_R_SQUARED 0.163, read-out: LUCIFERASE INFECTION ASSAY - IC50): 8.89 µM |
| CNc1ncnc(NNC(=O)Nc2ccc(Cl)cc2)c1[N+](=O)[O-] | > 9.77 µM |  | IC50 (PBLUC_HILL_SLOPE 3.27, PBLUC_R_SQUARED 0.316, read-out: LUCIFERASE INFECTION ASSAY - IC50): 5.92 µM |
| CCOc1nc(N)c(C#N)c(-c2ccc(C(F)(F)F)cc2)c1C#N | 8.21 µM | 4.53 µM |  |
| CCOC(=O)c1ccc(N2CCCCC2)c(NC(=O)c2sc3ccccc3c2Cl)c1 | > 7.45 µM |  | IC50 (FFLUC_HILL_SLOPE 35, FFLUC_R_SQUARED 0.23, read-out: LUCIFERASE INFECTION ASSAY - IC50): > 7.45 µM |
| CCc1c(C)[nH]c2c(-c3ccc(Cl)cc3)c(C)nn2c1=O | > 10.9 µM |  | IC50 (PBLUC_HILL_SLOPE 2.9, PBLUC_R_SQUARED 0.859, read-out: LUCIFERASE INFECTION ASSAY - IC50): 6.48 µM |
| COC(=O)c1c(NC(=O)C(=O)NCCN(C)C)sc2c1CCCC2 | > 9.34 µM | > 9.34 µM |  |
| O=C(COc1ccc2[nH]c3ccccc3c(=O)c2c1)N1CCN(c2ccc(F)cc2)CC1 | 7.49 µM |  | IC50 (PBLUC_HILL_SLOPE 2.14, PBLUC_R_SQUARED 0.725, read-out: LUCIFERASE INFECTION ASSAY - IC50): 2.68 µM |
| O=C(N/N=C1/C(=O)c2cccc3cccc1c23)c1ccccc1-n1cccc1 | > 10 µM |  | IC50 (PBLUC_HILL_SLOPE 0.275, PBLUC_R_SQUARED 0.0663, read-out: LUCIFERASE INFECTION ASSAY - IC50): > 10 µM |
| NC(=O)c1cc(-c2cs/c(=N\c3ccccc3F)n2C2CCCC2)ccc1O | > 10 µM |  | IC50 (PBLUC_HILL_SLOPE 1.38, PBLUC_R_SQUARED 0.237, read-out: LUCIFERASE INFECTION ASSAY - IC50): 4.32 µM |
| CC(C)(C)c1ccc(C(=O)NCCOc2ccccc2Cl)cc1 | 0.863 µM |  | IC50 (FFLUC_HILL_SLOPE 11.3, FFLUC_R_SQUARED 0.0884, PBLUC_HILL_SLOPE 2.08, PBLUC_R_SQUARED 0.74, read-out: LUCIFERASE INFECTION ASSAY - IC50): 0.3 µM |

| SMILES | IC90 | IC50 [1] | also measured |
| --- | --- | --- | --- |
| CC(C)(C)c1cc(C(=O)OCC(=O)N2CCCc3ccccc32)cc(C(C)(C)C)c1 | 9.87 µM |  | IC50 (FFLUC_HILL_SLOPE 12.2, FFLUC_R_SQUARED 0.329, PBLUC_HILL_SLOPE 3.02, PBLUC_R_SQUARED 0.491, read-out: LUCIFERASE INFECTION ASSAY - IC50): 4.77 µM |
| N#CCCN(C(=O)COC(=O)c1ccc2c(c1)NC(=O)CS2)c1ccc2c(c1)OCCO2 | > 10 µM | > 10 µM |  |
| CCC(NCC(O)COc1ccccc1C(C)C)C12CC3CC(CC(C3)C1)C2 (stereo unspecified) | > 10 µM | > 10 µM |  |
| CC1CN(S(=O)(=O)c2cc(Cl)c(Oc3ccc([N+](=O)[O-])cc3Cl)c(Cl)c2)CC(C)O1 (stereo unspecified) | > 6.66 µM | > 6.66 µM |  |
| NS(=O)(=O)c1ccc(CCNc2nn3c(-c4cccc(OC(F)(F)F)c4)cnc3s2)cc1 | > 6.83 µM |  | IC50 (FFLUC_HILL_SLOPE 3.32, FFLUC_R_SQUARED 0.88, HEPG2TOX_HILL_SLOPE 6.82, HEPG2TOX_R_SQUARED 0.258, PBLUC_HILL_SLOPE 3.52, PBLUC_R_SQUARED 0.409, read-out: LUCIFERASE INFECTION ASSAY - IC50): 4 µM |
| NC(=O)Cc1ccc(C(=O)CSc2ncnc3sc(-c4ccccc4)cc23)s1 | > 10 µM |  | IC50 (PBLUC_HILL_SLOPE 2.63, PBLUC_R_SQUARED 0.33, read-out: LUCIFERASE INFECTION ASSAY - IC50): 7.38 µM |
| Cc1ccc(-c2nnc(SCC(=O)N3c4ccccc4OCC3c3ccccc3)[nH]2)cc1 (stereo unspecified) | > 10 µM | > 10 µM |  |
| CCCNC(=O)c1c(NC(=O)c2ccc(CC)cc2)nc2ccccn12 | 3.4 µM |  | IC50 (HEPG2TOX_HILL_SLOPE 3.85, HEPG2TOX_R_SQUARED 0.726, PBLUC_HILL_SLOPE 11.9, PBLUC_R_SQUARED 0.398, read-out: LUCIFERASE INFECTION ASSAY - IC50): 2.83 µM |
| CNc1cc(-c2ccc(O)cc2C)nc2ccnn12 | 8.61 µM |  | IC50 (HEPG2TOX_HILL_SLOPE 3.86, HEPG2TOX_R_SQUARED 0.988, PBLUC_HILL_SLOPE 1.91, PBLUC_R_SQUARED 0.706, read-out: LUCIFERASE INFECTION ASSAY - IC50): 2.73 µM |
| NC(=O)C(C(=O)/C=C/c1ccc(Cl)cc1)=C1SCCS1 | 7.51 µM |  | IC50 (HEPG2TOX_HILL_SLOPE 2.58, HEPG2TOX_R_SQUARED 0.837, PBLUC_HILL_SLOPE 4.23, PBLUC_R_SQUARED 0.508, read-out: LUCIFERASE INFECTION ASSAY - IC50): 4.47 µM |
| OCc1cccc(-c2cnc3ccc(-c4ccccc4)nn23)c1 | 7.66 µM |  | IC50 (HEPG2TOX_HILL_SLOPE 3.47, HEPG2TOX_R_SQUARED 0.7, PBLUC_HILL_SLOPE 5.19, PBLUC_R_SQUARED 0.0412, read-out: LUCIFERASE INFECTION ASSAY - IC50): 5.02 µM |
| COc1ccc(OC)c(CCNc2nc3cnc(-c4cncnc4)cc3n2C)c1 | > 10 µM |  | IC50 (HEPG2TOX_HILL_SLOPE 2.17, HEPG2TOX_R_SQUARED 0.775, PBLUC_HILL_SLOPE 2.72, PBLUC_R_SQUARED 0.417, read-out: LUCIFERASE INFECTION ASSAY - IC50): 4.95 µM |
| CC1C/C(=N\Nc2cc(Cl)cc(Cl)c2)c2cc(Cl)ccc2S1 (stereo unspecified) | > 8.88 µM |  | IC50 (HEPG2TOX_HILL_SLOPE 6.52, HEPG2TOX_R_SQUARED 0.251, PBLUC_HILL_SLOPE 17, PBLUC_R_SQUARED 0.35, read-out: LUCIFERASE INFECTION ASSAY - IC50): 8.47 µM |
| Nc1nccnc1C(=O)NNC(=O)c1cc2c(s1)CCCCCC2 | 3.7 µM |  | IC50 (HEPG2TOX_HILL_SLOPE 2.95, HEPG2TOX_R_SQUARED 0.777, PBLUC_HILL_SLOPE 11, PBLUC_R_SQUARED 0.184, read-out: LUCIFERASE INFECTION ASSAY - IC50): 3.03 µM |
| COc1cc(C(=O)Nc2cccc(-n3cnnn3)c2)cc(OC)c1OC | > 9.29 µM |  | IC50 (PBLUC_HILL_SLOPE 1.51, PBLUC_R_SQUARED 0.135, read-out: LUCIFERASE INFECTION ASSAY - IC50): 5.06 µM |
| COc1ccc(Cc2nccc3cc(OC)c(OC)cc23)cc1OC [PAPAVERINE] | > 8.78 µM | > 8.78 µM |  |
| CCOc1ccc(-c2nc(NC(=O)c3ccc(OC)c(S(=O)(=O)N(C)OC)c3)sc2C)cc1 | > 10 µM | > 10 µM |  |
| CCN(CC)c1ccc(Nc2nc(-c3ccncc3)cs2)cc1 | > 8.14 µM |  | IC50 (HEPG2TOX_HILL_SLOPE 17.3, HEPG2TOX_R_SQUARED 0.807, PBLUC_HILL_SLOPE 2.78, PBLUC_R_SQUARED 0.42, read-out: LUCIFERASE INFECTION ASSAY - IC50): 4.75 µM |
| Cc1cccc2c(=O)n(CC(=O)NCCCCOc3ccc(F)cc3)cnc12 | > 10 µM | > 10 µM |  |
| CC(C)CCN1C(=O)N(C(C)C)C(=O)C12CCN(Cc1c[nH]c3ccccc13)CC2 | > 8.04 µM |  | IC50 (HEPG2TOX_HILL_SLOPE 1.06, HEPG2TOX_R_SQUARED 0.491, PBLUC_HILL_SLOPE 3.87, PBLUC_R_SQUARED 0.243, read-out: LUCIFERASE INFECTION ASSAY - IC50): > 8.04 µM |
| Cc1oc2c(c1C(=O)NC(C)(C)C)C(=O)c1ccccc1C2=O | 4.63 µM |  | IC50 (HEPG2TOX_HILL_SLOPE 2.79, HEPG2TOX_R_SQUARED 0.986, PBLUC_HILL_SLOPE 0.957, PBLUC_R_SQUARED 0.592, read-out: LUCIFERASE INFECTION ASSAY - IC50): 0.466 µM |

From ChEMBL document CHEMBL4483862, “Open-source discovery of chemical leads for next-generation chemoprotective antimalarials” (2018)
